Literature values as cited in patent US20140178456A1, “METHODS AND COMPOSITIONS FOR TREATING TYPE 2 DIABETES AND RELATED CONDITIONS” (priority 2012, published 2014).
Counter-ions that a name gives are not always drawn.

Compound: CN(CCOc1ccc(CC2SC(=O)NC2=O)cc1)c1ccccn1 (centres unmarked) [rosiglitazone maleate]
- peak plasma concentration (oral administration of 8 mg rosiglitazone maleate): about 46114 per liter

Compound: CCc1ccc(CCOc2ccc(CC3SC(=O)NC3=O)cc2)nc1 (centres unmarked) [pioglitazone]
- peak plasma concentration of pioglitazone and its active metabolites (oral administration of 30 mg pioglitazone): about 146 μg per liter
